Assay results published in ChEMBL document CHEMBL3627603, “Helical peptide-polyamine and -polyether conjugates as synthetic ionophores” (Bioorg Med Chem, 2015).
Converted amounts (≈) assume the structure as drawn. The source made the active and inactive calls. The calls are words filed in the database; no cut-off is given here. Starred links: 1 amine or outer side, 2 acyl side, 3 side chain; linkers in the order of their positions; H or OH if unused. Non-standard residues stand in square brackets, D forms with d. Residues, ends and D or L forms follow the SMILES beside them. *: point of attachment. HN(CH2CH2O)5CH2CH2NH = C(COCCOCCOCCOCCOCCN[*:2])N[*:1]; X1 = O=C(c1ccc(OP(=O)(O)O)cc1)*; Spermine = NCCCNCCCCNCCCN*; Aib = CC(C)(N)C(=O)O

Experiments:
[1] = test system: Candida albicans; test: Antifungal activity against Candida albicans clinical isolate after 48 hrs by broth microdilution method; assay type: functional
[2] = test system: Staphylococcus aureus; test: Antibacterial activity against Staphylococcus aureus 34 clinical isolate after 24 hrs by broth microdilution method; assay type: functional; conditions: Staphylococcus aureus, 34, 24 h
[3] = test system: Pseudomonas aeruginosa; test: Antibacterial activity against Pseudomonas aeruginosa ATCC 27853 after 24 hrs by broth microdilution method; assay type: functional; conditions: ATCC 27853, 24 h
[4] = test system: Escherichia coli; test: Antibacterial activity against Escherichia coli ATCC 25922 after 24 hrs by broth microdilution method; assay type: functional; conditions: ATCC 25922, 24 h
[5] = (§1) Ionophoric activity across large unilamellar vesicles containing 95:5 egg yolk phosphatidylcholine and phosphatidylglycerol assessed as apparent first order rate constant for H+ transport at 1% of total concentration of lipids at 25 degC measured after 20 mins by HPTS-based fluorescence assay (reference value: 2 x 10^-4/s); assay type: ADME
[6] = Ionophoric activity across large unilamellar vesicles containing 95:5 egg yolk phosphatidylcholine and phosphatidylglycerol assessed as apparent first order rate constant for Na+ transport at 1% of total concentration of lipids at 25 degC measured every 30 mins over 14 hrs by 23Na+ NMR analysis; assay type: ADME
[7] = as §1, with “1.5%” for “1%”; assay type: ADME
[8] = as §1, with “2%” for “1%”; assay type: ADME
[9] = as §1, with “2.5%” for “1%”; assay type: ADME
[10] = Induction of lysis of large unilamellar vesicles containing 95:5 egg yolk phosphatidylcholine and phosphatidylglycerol assessed as calcein release at 0.22 mM treated at 400 to 1600 secs by fluorometric analysis; assay type: functional
[11] = test system: Cryptococcus neoformans; test: Antifungal activity against Cryptococcus neoformans clinical isolate after 48 hrs by broth microdilution method; assay type: functional
[12] = test system: Staphylococcus aureus; test: Antibacterial activity against methicillin-resistant Staphylococcus aureus 16 clinical isolate after 24 hrs by broth microdilution method; assay type: functional; conditions: Staphylococcus aureus, 16, 24 h
[13] = test system: Escherichia coli; test: Induction of outer membrane permeabilization of Escherichia coli ML-35 pYC constitutively expressing cytoplasmic beta-galactosidase/periplasmic beta-lastamase assessed as CENTA hydrolysis at 256 uM by microplate reader analysis; assay type: functional, organism-based
[14] = test system: Escherichia coli; test: Induction of inner membrane permeabilization of Escherichia coli ML-35 pYC constitutively expressing cytoplasmic beta-galactosidase/periplasmic beta-lastamase assessed as Gal-ONp hydrolysis at 256 uM by microplate reader analysis; assay type: functional, organism-based
[15] = Ionophoric activity across large unilamellar vesicles containing 95:5 egg yolk phosphatidylcholine and phosphatidylglycerol assessed as apparent first order rate constant for Na+ transport at 0.2% of total concentration of lipids at 25 degC measured every 30 mins over 14 hrs by 23Na+ NMR analysis; assay type: ADME
[16] = Ionophoric activity across large unilamellar vesicles containing 95:5 egg yolk phosphatidylcholine and phosphatidylglycerol assessed as apparent first order rate constant for Na+ transport at 0.5% of total concentration of lipids at 25 degC measured every 30 mins over 14 hrs by 23Na+ NMR analysis; assay type: ADME
[17] = Ionophoric activity across large unilamellar vesicles containing 95:5 egg yolk phosphatidylcholine and phosphatidylglycerol assessed as apparent first order rate constant for Na+ transport at 1.5% of total concentration of lipids at 25 degC measured every 30 mins over 14 hrs by 23Na+ NMR analysis; assay type: ADME
[18] = Ionophoric activity across large unilamellar vesicles containing 95:5 egg yolk phosphatidylcholine and phosphatidylglycerol assessed as apparent first order rate constant for Na+ transport at 2% of total concentration of lipids at 25 degC measured every 30 mins over 14 hrs by 23Na+ NMR analysis; assay type: ADME
[19] = Ionophoric activity across large unilamellar vesicles containing 95:5 egg yolk phosphatidylcholine and phosphatidylglycerol assessed as apparent first order rate constant for Na+ transport at 3% of total concentration of lipids at 25 degC measured every 30 mins over 14 hrs by 23Na+ NMR analysis; assay type: ADME
[20] = as §1, with “0.5%” for “1%”; assay type: ADME
[21] = as §1, with “3%” for “1%”; assay type: ADME
[22] = test system: Escherichia coli; test: Induction of outer membrane permeabilization of Escherichia coli ML-35 pYC constitutively expressing cytoplasmic beta-galactosidase/periplasmic beta-lastamase assessed as CENTA hydrolysis at 64 uM by microplate reader analysis; assay type: functional, organism-based
[23] = test system: Escherichia coli; test: Induction of inner membrane permeabilization of Escherichia coli ML-35 pYC constitutively expressing cytoplasmic beta-galactosidase/periplasmic beta-lastamase assessed as Gal-ONp hydrolysis at 64 uM by microplate reader analysis; assay type: functional, organism-based

Row | SMILES | MIC [1] [µM] | MIC [2] [µM] | MIC [3] [µM] | MIC [4] [µM] | Activity [6] | Kapp [5] [×10⁻³ /s] | Kapp [7] [×10⁻² /s] | Kapp [8] [×10⁻² /s] | Kapp [9] [×10⁻² /s] | Activity [10] | MIC [11] [µM] | MIC [12] [µM] | Kapp [20] [×10⁻³ /s] | other results
1 | CC(C)[C@@H](CC[C@@H](C)[C@H]1CC[C@H]2[C@@H]3[C@H](O)C[C@H]4C[C@@H](NCCCNCCCCN)CC[C@]4(C)[C@H]3CC[C@]12C)OS(=O)(=O)O [SQUALAMINE] | 4 (≈ 2.51 µg/mL) | 1 (≈ 0.628 µg/mL) | 4 (≈ 2.51 µg/mL) | 1 (≈ 0.628 µg/mL) |  |  |  |  |  |  |  |  |  | 
2 | C[C@@H]1[C@H](O)[C@@H](C)/C=C/C=C/C=C/C=C/C=C/C=C/C=C/[C@H](O[C@@H]2O[C@H](C)[C@@H](O)[C@H](N)[C@@H]2O)C[C@@H]2O[C@](O)(C[C@@H](O)C[C@@H](O)[C@H](O)CC[C@@H](O)C[C@@H](O)CC(=O)O[C@H]1C)C[C@H](O)[C@H]2C(=O)O [AMPHOTERICIN B] |  |  |  |  | Active |  |  |  |  |  |  |  |  | Activity [5]: Active
3 | CC(C)(NC(=O)c1ccc(OP(=O)(O)O)cc1)C(=O)NC(C)(C)C(=O)NC(C)(C)C(=O)NC(C)(C)C(=O)NC(C)(C)C(=O)NC(C)(C)C(=O)NC(C)(C)C(=O)NC(C)(C)C(=O)NCCOCCOCCOCCOCCOCCN (X1-[Aib][Aib][Aib][Aib][Aib][Aib][Aib][Aib]-{HN(CH2CH2O)5CH2CH2NH}) | > 128 | > 128 | > 128 | > 128 |  | 7.71 | 1.78 | 2.59 | 4.89 | inactive | > 128 | > 128 | 4.96 | Activity [13]: inactive; Activity [14]: inactive; Kapp [15]: 0.0017 min⁻¹; Kapp [16]: 0.0037 min⁻¹; Kapp [6]: 0.0063 min⁻¹; Kapp [17]: 0.0078 min⁻¹; Kapp [18]: 0.0102 min⁻¹; Kapp [19]: 0.015 min⁻¹
4 | CC(C)(NC(=O)c1ccc(OP(=O)(O)O)cc1)C(=O)NC(C)(C)C(=O)NC(C)(C)C(=O)NC(C)(C)C(=O)NC(C)(C)C(=O)NC(C)(C)C(=O)NC(C)(C)C(=O)NC(C)(C)C(=O)NCCCNCCCCNCCCN (X1-[Aib][Aib][Aib][Aib][Aib][Aib][Aib][Aib]-Spermine) | 32 (≈ 34.7 µg/mL) | 16 (≈ 17.3 µg/mL) | 64 (≈ 69.3 µg/mL) | 32 (≈ 34.7 µg/mL) | Not Active | 5.24 | 1.73 | 1.98 | 3.62 | inactive | 16 (≈ 17.3 µg/mL) | 32 (≈ 34.7 µg/mL) | 4.08 | Kapp [21]: 6.77 ×10⁻² /s; Activity [22]: Active; Activity [23]: Active
